Consider seven compounds from patent US20150315218A1, “SALTS OF PRODRUGS OF PIPERAZINE AND SUBSTITUTED PIPERIDINE ANTIVIRAL AGENTS” (Bristol-Myers Squibb Company, priority 2004, published 2015).

The structures appear in SMILES notation. In brackets after ≈: the same amount, converted by molar mass. Like-named read-outs stand apart in the source and are kept apart here. Where only a bound is given, the exact number is not on record here.

Series [1] is described as follows: Oral dosing studies of prodrugs Ie and If in rats (Table 47). Conditions: for parent molecule in plasma following PO dosing of prodrug: rats, oral dosing of prodrug Ie or If. The series is classed as in vivo, rat. As for the experimental part:
Prodrug Ie was dosed orally to rats using methodology similar to that described above for the other prodrugs. […] Prodrug If was dosed orally to rats using methodology similar to that described above for the other prodrugs.

Series [2] has as its system HIV-1 T-tropic strain LAI. The series can be described thus: Antiviral assay: HIV-1 LAI infection of MT-2 cells, reverse transcriptase readout (EC50, Table 48). Type of series: cell-based. Conditions: Human immunodeficiency virus 1, MT2, read-out: EC50-LAI. The source says: The materials and experimental procedures used to assess the anti-HIV activity of the parent compounds which are generated from the prodrugs in vivo are described below:
• The human T cell line MT-2 and PM1 (AIDS Research and Reference Reagent Program, National Institutes of Health) were maintained and propagated in Medium RPMI-1640 (Invitrogen, Carlsbad, Calif.), containing 10% fetal Bovine serum. (FBS, Sigma, St. Louis, Mo.).
• Laboratory strains of HIV-1—the T-tropic strain LAI was obtained through the AIDS Research and Reference Reagent Program, National Institutes of Health. It was amplified in MT-2 cells and titered using a virus yield assay (2). Detection was achieved through use of a reverse transcriptase assay (3), adapted for use with a Scintillation Proximity detection protocol (1) (Amersham Biosciences, Piscataway, N.J.).
• 1. Compounds stocks were prepared by dissolving in DMSO to 30 mM. For dilution plates, compounds were serially diluted 3-fold into DMSO, using 96-well polypropylene plates, so that the concentrations were 100-fold greater than the final assay concentration. For antiviral and cytotoxicity assays, 2 μl was added per well (1% final DMSO concentration). • 2. Compounds were added from dilution plates to 96 well tissue culture plates, containing 100 μl Medium RPMI-1640, containing 10% fetal bovine serum at a concentration of <20 μM. • 3. For antiviral assays, cells were infected at a multiplicity of infection of 0.005. After 1 h at 37° C., infected cells were diluted to 200,000 cells per ml in Medium RPMI-1640, containing 10% fetal bovine serum. 100 μl of this solution was added per well, giving a final volume of 200 μl. • 4. Plates were incubated at 37° C. in a humidified CO2 incubator and harvested after 5 days. • 5. Viral infections were monitored by measuring reverse transcriptase activity in the supernatants of infected wells as described above. The percent inhibition for each compound was calculated by quantifying the readout level in cells infected in the presence of each compound as a percentage of that observed for cells infected in the absence of compound and subtracting such a determined value from 100. • 6. An EC50 provides a method for comparing the antiviral potency of the compounds of this invention. The effective concentration for fifty percent inhibition (EC50) was calculated with the Microsoft Excel Xlfit curve fitting software. For each compound, curves were generated from percent inhibition calculated at 8 different concentrations by using a four paramenter logistic model (model 205).

The nature of series [3]: Cytotoxicity assay (XTT dye reduction) in MT-2 cells. Type of series: cell-based. As to conditions: human, six days.
Description: Cytotoxicity assays were conducted with the same MT-2 cells, using methodology well known in the art. […] 50 μl of XTT reagent (1 mg/ml 2,3-bis[2-methoxy-4-nitro-5-sulfophenyl]-2H-tetrazolium-5-carboxanilide, 10 μg/ml phenazine methosulfate dissolved in phosphate buffered saline) was added to each well and incubated for 3 hours. Color formation by actively respiring cells was quantitated in a plate reader at 450 nm, and used to determine a CC50.
Series [4] can be described thus: 2-week oral dose rat toxicology / TK study F. Type of series: in vivo. As to conditions: for AUC(0-t): Sprague-Dawley, rat, plasma, oral, dosages 200 mg/kg/day, read-out: AUC0-24 h on Day 14. As for the experimental part:
In the 2-week oral rat study F (n=six/sex/group), Compound IVe was administered at daily doses of 15, 75, or 200 mg/kg. […] On Day 14, AUC0-24 h values were slightly higher in females (≦644 μg*hr/ml) compared to males (526.88 μg*hr/ml) at dosages 200 mg/kg/day. The oral (PO) results from Study F are in Table 5.

For series [5], the target named is T1, alkaline phosphatase (human placenta, Sigma) (Homo sapiens, UniProt P05187).
T1 construct: Qualitative in vitro studies using human placental alkaline phosphatase; purchased Sigma; host or cells: human placenta (as the result head says)
Briefly: In vitro conversion in alkaline phosphatase (Table 1, note 1). The series is classed as in vitro ADME. As to conditions: ~0.2 mM prodrug, ~1.4 unit ALP, pH 8 Tris buffer; full wording: Complete and rapid conversion to parent without any intermediate formation.

The nature of series [6]: IV and oral rat PK (MAP) studies A, B, C of phosphate prodrugs and parent studies A1, B1, C1. As to conditions: for In vivo conversion in Rats-iv (note 2) MAP study: dose equiv. to 1 mg/Kg of the parent; for In vivo conversion in Rats-iv (note 2) MAP study / In vivo conversion in Rats-oral (note 2) MAP study: full wording: Rapid generation of parent in plasma; for clearance / Vd / half-life: male, Sprague-Dawley, rat, 1 mg/kg; for clearance / Vd / half-life / AUC 0-24 h (μM * hr) / Cmax (uM) / Cp @ 24 hr p.o. (nM): rats; for clearance / Vd: prodrug IV equivalent to 1 mpk of parent; for clearance: read-out: CL i.v.; for Vd: read-out: Vss i.v.; for half-life: after IV prodrug dosing equivalent to 1 mpk of parent, read-out: T1/2 i.v. (converted); for half-life / AUC 0-24 h (μM * hr) / Cmax (uM) / Cp @ 24 hr p.o. (nM): analyte = label; for In vivo conversion in Rats-oral (note 2) MAP study: dose equiv. to 5 mg/Kg of the parent; for AUC 0-24 h (μM * hr) / Cmax (uM) / Cp @ 24 hr p.o. (nM): after PO prodrug dosing equivalent to 5 mpk of parent. The series is classed as in vivo, Sprague-Dawley rats. Here is the method: The rats for oral dosing studies were fasted overnight. […] The dosing solutions of all three prodrugs for both IV and oral administration were prepared in 100% normal saline at 1 mg/mL (dosing solution concentrations were parent compound equivalent). Plasma samples were collected in EDTA vacutainers over 24 hrs, and analyzed by LC/MS/MS for both the prodrugs and parent molecules. Pharmacokinetic analysis was performed on Kinetica™.
Plasma and tissue samples were collected and stored at −20° C. until analysis. […] Rats were fasted overnight in PO studies. […] In the PO studies, rats (n=3) received PO doses of 5 and 100 mg/kg.
Male Sprague-Dawley rats (300-350 g, Hilltop Lab Animals, Inc., Scottdale, Pa.) with cannulas implanted in the jugular vein and/or bile duct were used. The rats were fasted overnight in the PO pharmacokinetic studies. Blood samples of 0.3 ml were collected from the jugular vein in EDTA-containing microtainer tubes (Becton Dickinson, Franklin Lakes, N.J.), and centrifuged to separate plasma.

Series [7] can be described thus: physchem. Conditions: pH 6.5, aqueous buffer.

T1 sequence (P05187 23-506 limits assumed): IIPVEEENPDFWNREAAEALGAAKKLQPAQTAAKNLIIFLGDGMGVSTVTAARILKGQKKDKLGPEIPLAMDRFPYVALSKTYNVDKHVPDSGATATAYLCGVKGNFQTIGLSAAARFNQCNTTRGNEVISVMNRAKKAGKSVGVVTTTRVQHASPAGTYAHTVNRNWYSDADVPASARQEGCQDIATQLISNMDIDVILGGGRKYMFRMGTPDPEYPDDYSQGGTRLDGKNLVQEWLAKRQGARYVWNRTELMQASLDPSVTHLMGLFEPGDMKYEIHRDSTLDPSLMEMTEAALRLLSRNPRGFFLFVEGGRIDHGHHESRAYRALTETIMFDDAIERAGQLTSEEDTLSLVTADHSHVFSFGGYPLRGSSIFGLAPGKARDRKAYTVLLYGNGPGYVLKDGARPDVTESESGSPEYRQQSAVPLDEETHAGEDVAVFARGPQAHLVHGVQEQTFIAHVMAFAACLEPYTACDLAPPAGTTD

Regarding `COc1cnc(-n2cnc(C)n2)c2c1c(C(=O)C(=O)N1CCC(=C(C#N)c3ccccn3)CC1)cn2COP(=O)(OC(C)(C)C)OC(C)(C)C` [IIe], the “F (%) (calc on historical IV data for parent)” value in series [1] (rat, diester prodrug IIe PO 7.0 mg/kg (IVe eq), PK of IVe only) is recorded as 7.7%. Besides, the “Cp @ 24 hr p.o.” value in series [1] (rat, diester prodrug IIe PO 7.0 mg/kg (IVe eq), PK of IVe only, 1/3 rats) is listed as 8.17 (1/3 rats) nM.

As a reminder, the EC50 is the concentration needed to bring the measured effect to its halfway point. As a reminder, the CC50 is the concentration that lowers cell viability or growth by half. Low values mean harm at low concentration, high ones better tolerance by the cells. `COc1cnc(-n2ccc(C)n2)c2[nH]cc(C(=O)C(=O)N3CCN(C(=O)c4ccccc4)[C@H](C)C3)c12` [IVd]: the concentration giving a half-maximal response (EC50) in series [2] was less than 1 µM. Besides, the 50% cytotoxic concentration (CC50) at 6 days in series [3] is more than 10 µM.

Regarding `COc1cnc(-n2cnc(C)n2)c2[nH]cc(C(=O)C(=O)N3CCC(=C(C#N)c4ccccn4)CC3)c12` [IVe, 2-(1-(2-(4-methoxy-7-(3-methyl-1H-1,2,4-triazol-1-yl)-1H-pyrrolo[2,3-c]pyridin-3-yl)-2-oxoacetyl)piperidin-4-ylidene)-2-(pyridin-2-yl)acetonitrile], the AUC(0-t) in series [4] (female, females) is not above 644 µg·h/mL; in series [4] (male, males) it was 527 µg·h/mL. Moreover, the autoinduction or accumulation result in series [4] (toxicokinetic evaluations on days 1 and 14) was “no evidence of autoinduction or accumulation”. Moreover, the “parent molecule in plasma following PO dosing of prodrug” value in series [1] is “detected in the plasma”.

Consider `O=C(C(=O)N1CCN(c2ncnc3ccccc23)CC1)c1c[nH]c2c(-n3ccnn3)ncc(F)c12` [IVf], for which the “parent molecule in plasma following PO dosing of prodrug” value in series [1] is given as “detected in the plasma”.

A word on the solubility: it is how much of the substance goes into solution per volume. For the compound `COc1cnc(OC)c2c1c(C(=O)C(=O)N1CCN(C(=O)c3ccccc3)CC1)cn2COP(=O)(O)O` [Ia], the “In vitro conversion in Alkaline phosphatase (note 1)” value (“In vitro conversion” below) in series [5] was “Complete”. In addition, in series [6], the “In vivo conversion in Rats-iv (note 2) MAP study” value was “Rapid”, the “In vivo conversion in Rats-oral (note 2) MAP study” value is “Rapid”, the “AUC 0-24 h (μM * hr)” value was “LLQ” and the “Cmax (uM)” value is “LLQ”. The “Cp @ 24 hr p.o. (nM)” value in series [6] is recorded as “LLQ”. In series [6] (plasma), the clearance is 16 ± 0.95 mL/min/kg and the Vd is 0.095 ± 0.001 L/kg. Further, the half-life in series [6] (plasma, iv) is 8.4 ± 1.2 min. In addition, in series [7], the solubility was more than 18000 µg/mL.

On to `O=C(C(=O)N1CCN(C(=O)c2ccccc2)CC1)c1cn(COP(=O)([O-])[O-])c2c(-n3ccnn3)ncc(F)c12.[Na+].[Na+]` [Ib], for which the “In vitro conversion” value in series [5] is listed as “Complete”. In series [6], the “In vivo conversion in Rats-iv (note 2) MAP study” value is listed as “Rapid”, the “In vivo conversion in Rats-oral (note 2) MAP study” value is “Rapid”, the “AUC 0-24 h (μM * hr)” value is given as “LLQ” and the “Cmax (uM)” value is “LLQ”. For the same compound, in series [6], the “Cp @ 24 hr p.o. (nM)” value was “LLQ”. Besides, in series [6] (in vivo), the half-life was 108 ± 72 min, the clearance is 46 ± 10 mL/min/kg and the Vd was 0.97 ± 0.47 L/kg. In series [7], this compound came in with a solubility of more than 8000 µg/mL.

For `COc1cnc(-n2cnc(C)n2)c2c1c(C(=O)C(=O)N1CCN(C(=O)c3ccccc3)CC1)cn2COP(=O)(O)O` [Ic], the “In vitro conversion” value in series [5] is listed as “Complete”. In addition, the concentration in solution in series [7] (solubility) came to 1000 µg/mL (≈ 1710 µM).
